How the values were obtained:
[1] = system: human endometrial cancer cell line MFE280 xenograft; experiment: Antitumor effect in MFE280 subcutaneous xenograft model in mice; type: in vivo; settings: oral, once a day for 14 days, tumor volume last day
Text: Human endometrial cancer cell line MFE280 (DSMZ Number ACC-410), which had been cultured in an RPMI-1640 medium containing 10% FBS, and penicillin and streptomycin, were adjusted to a concentration of 4.7×10^7 cells/mL with Hanks' Balanced Salt Solution (GIBCO 1124020) to prepare a cell suspension, and the suspension was mixed with […] (BD Biosciences, Cat#354234) in a ratio of 1:1 to prepare a cell suspension in a concentration of 2.4×10^7 cells/ml. The cell suspension was inoculated in a volume of 100 μL into a subcutaneous part of a right flank of nude mice, 7 weeks of age (BALB/cAJcl-nu/nu, female, Clea Japan Inc.). Thirty five days after cell inoculation, the shortest diameter and the longest diameter of a tumor in each mouse were measured by using an electronic digital caliper (Digimatic™ caliper, Mitutoyo Corporation), so as to calculate the volume of the tumor in accordance with the following calculation formula: Tumor volume(mm^3)=Longest diameter(mm)×Shortest diameter(mm)×Shortest diameter(mm)/2
(§1) On the basis of the volumes of tumors obtained on the fast day of administration, the nude mice were grouped such that averages of the tumor volumes were substantially equal among the groups. Each test substance was dissolved in DMSO, Tween 80 was added thereto to prepare a solution in a 10-fold concentration and the thus prepared solution was stored at the freezer before use. Immediately before the administration, the stock solution was diluted with a 5% glucose solution to obtain a final administration solution (in which a ratio in % among DMSO, Tween 80 and the 5% glucose solution was 3.5:6.5:90). Each evaluation sample was orally administered to test substance administration group at a volume of 0.4 mL per 20 g of body weight once a day continuously for 14 days, and in a control group, an administration solvent was orally administered under the same conditions. Incidentally, the experiment was conducted on groups each consisting of 5 mice.
(§2) With respect to each of the control group and test substance administration group, a ratio of the weight measured on the final day to the weight measured on the first day (relative body weight: RBW) was calculated. If a ratio of the RBW of the test substance administration group/the RBW of the control group is 0.9 or more, the corresponding test substance administration group was defined as a well-tolerated. In the test substance administration group thus defined as well-tolerated, a ratio of the tumor volume of the test substance-dosing group to the tumor volume of the control group obtained on the last day (TIC) (%) was calculated, and shown in Table 28.

[2] = system: human stomach cancer cell line SNU-16 xenograft; experiment: Antitumor effect in SNU-16 subcutaneous xenograft model in mice; type: in vivo; settings: oral, once a day for 11 days, tumor volume last day
Text: Human stomach cancer cell line SNU-16, which had been cultured in an RPMI-1640 medium containing 10% FBS, and penicillin and streptomycin, were adjusted to a concentration of 1×10^8 cells/mL with Hanks' Balanced Salt Solution (GIBCO #24020) to prepare a cell suspension, and the suspension was mixed with […] (BD Biosciences, Cat#354234) in a ratio of 1:1 to prepare a cell suspension in a concentration of 5×10^7 cells/ml. The cell suspension was inoculated in a volume of 100 ut into a subcutaneous part of a right flank of nude mice, 6 to 7 weeks of ages (BALB/cAiel-nu/nu, female, Clea Japan Inc.). Seven days after cell inoculation, the shortest diameter and the longest diameter of a tumor in each mouse were measured by using an electronic digital caliper (Digimatie™ caliper, Mitutoyo Corporation), so as to calculate the volume of the tumor in accordance with the following calculation formula: Tumor volume(mm^3)Longest diameter(mm)×Shortest diameter(mm)×Shortest diameter(mm)/2
as §1, with “first” for “fast”, “11” for “14”
as §2, with “mom,” for “more,”, “21.” for “28.”

In the case of `CNC(=O)n1ccc2cc(Oc3ccnc(NC(=O)c4ccc(C5CCN(CCO)CC5)cc4)c3)c(OCCOC)cc21` [Example 22, 5-((2-(4-(1-(2-Hydroxyethyl)piperidin-4-yl)benzamide)pyridin-4-yl)oxy)-6-(2-methoxyethoxy)-N-methyl-1H-indole-1-carboxamide], the “T/C (%)” value ([1]; 6.25 mg/kg) is reported as 72%, the “T/C (%)” value ([1]; 12.5 mg/kg) is reported as 57% and the “T/C (%)” value ([1]; 25 mg/kg) is reported as 31%. The “T/C (%)” value ([1]; 50 mg/kg) was 11%, the “T/C (%)” value ([2]; 6.25 mg/kg) was 49% and the “T/C (%)” value ([2]; 12.5 mg/kg) was 26%. The “T/C (%)” value ([2]; 25 mg/kg) was 17% and the “T/C (%)” value ([2]; 50 mg/kg) was 18%.

From US8933099B2, “Monocyclic pyridine derivative” (Eisai R&D Management Co., Ltd., priority 2013, dated 2015)
